Reference: ChEMBL document CHEMBL6087385, “Synthesis and biological evaluation of Ribo 7-N/O/S pyrimidine 9-deaza C-nucleoside analogs as new antiviral agents for inhibiting HCV RNA-dependent RNA polymerases” (Eur J Med Chem, 2024)
Calls of active or inactive are those of the source. No cut-off for these calls is given here.

Experiments:
Hepatitis C virus [1] = test: Antiviral activity against Hepatitis C virus infected in Ava5 cells assessed as inhibition of viral RNA replication incubated for 72 hrs by RT-PCR analysis; format: functional, organism-based; conditions: for Activity: Hepacivirus hominis
Hepatitis C virus [2] = test: Antiviral activity against HCV infected in human Huh-7 cells assessed as inhibition of viral RNA replication incubated for 24 hrs by ribonuclease protection assay; format: functional, organism-based, Hepacivirus hominis; conditions: Huh-7, 24 h
Hepatitis C virus [3] = test: Antiviral activity against HCV genotype 1a infected in GLuc-1 cells; format: functional, organism-based, Hepacivirus hominis
Hepatitis C virus [4] = test: Anti-viral activity against HCV genotype 1b infected in human Huh-luc cells; format: functional, organism-based, Hepacivirus hominis
Hepatitis C virus [5] = test: Anti-viral activity against HCV genotype 2a infected in 2aLucNeo-25 cells; format: functional, organism-based, Hepacivirus hominis
Hepatitis C virus [6] = test: Anti-viral activity against HCV genotype 2a infected in Lunet-CD81 cells; format: functional, organism-based, Hepacivirus hominis

| SMILES | Activity (Hepatitis C virus [1]) | also measured |
| --- | --- | --- |
| C[C@@]1(O)[C@H](O)[C@@H](CO)O[C@H]1c1coc2c(=S)[nH]cnc12 | inactive | – |
| C[C@@]1(O)[C@H](O)[C@@H](CO)O[C@H]1n1cnc2c(N)ncnc21 | – | EC50 (Hepatitis C virus [2]): 0.3 µM; EC50 (Hepatitis C virus [3]): 0.23 µM; EC50 (Hepatitis C virus [4]): 0.3 µM; EC50 (Hepatitis C virus [5]): 1.43 µM; EC50 (Hepatitis C virus [6]): 0.3 µM |
| C[C@@]1(O)[C@H](O)[C@@H](CO)O[C@H]1c1coc2c(N)nc(N)nc12 | inactive | – |
| C[C@@]1(O)[C@H](O)[C@@H](CO)O[C@H]1c1coc2c(=O)[nH]cnc12 | inactive | – |
| C[C@@]1(O)[C@H](O)[C@@H](CO)O[C@H]1c1c[nH]c2c(=O)[nH]c(N)nc12 | inactive | – |
| C[C@@]1(O)[C@H](O)[C@@H](CO)O[C@H]1c1coc2c(=O)[nH]c(N)nc12 | inactive | – |
| C[C@@]1(O)[C@H](O)[C@@H](COP(=O)(O)OP(=O)(O)OP(=O)(O)O)O[C@H]1c1coc2c(N)ncnc12 | – | IC50 (Hepatitis C virus [1]; Ava5, 72 h): 5 µM |
| C[C@@]1(O)[C@H](O)[C@@H](CO)O[C@H]1c1csc2c(N)ncnc12 | inactive | – |
